Laboratory results from US12637437B2, “Herbicidal compounds” (SYNGENTA CROP PROTECTION AG, priority 2021, dated 2026).

Assays:
Format in all cases: in vivo
[1] = tested on: Amaranthus retoflexus (AMARE); assay: Post-emergence herbicidal glasshouse test, AMARE; parameters: dose or concentration left out as unconfirmed; conditions: evaluated after 13 days, five-point scale
Procedure, shortened: (§1)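 Score: % plant damage at 13 days, binned 1–5 (1=0-19%, 2=20-39%, 3=40-59%, 4=60-79%, 5=80-100%). Rate 125 g/h unless stated. Solvent acetone/water 50:50 + 0.5% Tween 20. Spray timing: day 1 pre-emergence, day 8 post-emergence.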

[2] = tested on: Abutilon theophrasti (ABUTH); assay: Post-emergence herbicidal glasshouse test, ABUTH; conditions: 125 g/h, evaluated after 13 days, five-point scale
Protocol: (§2) Seeds of a variety of test species are sown in standard soil in pots (Lolium perenne (LOLPE), Amaranthus retoflexus (AMARE), Abutilon theophrasti (ABUTH), Setaria faberi (SETFA), Echinochloa crus-galli (ECHCG), Ipomoea hederacea (IPOHE)). After cultivation for one day (pre-emergence) or after 8 days cultivation (post-emergence) under controlled conditions in a glasshouse (at 24/16° C., day/night; 14 hours light; 65% humidity), the plants are sprayed with an aqueous spray solution derived from the formulation of the technical active ingredient in acetone/water (50:50) solution containing 0.5% Tween 20 (polyoxyethelyene sorbitan monolaurate, CAS RN 9005-64-5). Compounds are applied at 125 g/h unless otherwise indicated. The test plants are then grown in a glasshouse under controlled conditions in a glasshouse (at 24/16° C., day/night; 14 hours light; 65% humidity) and watered twice daily. After 13 days for pre and post-emergence, the test is evaluated for the percentage damage caused to the plant. The biological activities are shown in the following table on a five-point scale (5=80-100%; 4=60-79%; 3=40-59%; 2=20-39%; 1=0-19%). “—” denotes not tested on this species or data not captured.

Setaria faberi (SETFA) [3] = assay: Post-emergence herbicidal glasshouse test, SETFA; conditions: 125 g/h, evaluated after 13 days, five-point scale
Procedure, shortened: as §1

[4] = tested on: Echinochloa crus-galli (ECHCG); assay: Post-emergence herbicidal glasshouse test, ECHCG; conditions: 125 g/h, evaluated after 13 days, five-point scale
Procedure, shortened: as §1

[5] = tested on: Ipomoea hederacea (IPOHE); assay: Post-emergence herbicidal glasshouse test, IPOHE; conditions: 125 g/h, evaluated after 13 days, five-point scale
Procedure, shortened: as §1

[6] = tested on: Amaranthus retoflexus (AMARE); assay: Pre-emergence herbicidal glasshouse test, AMARE; conditions: 125 g/h, evaluated after 13 days, five-point scale
Procedure, shortened: as §1

[7] = tested on: Abutilon theophrasti (ABUTH); assay: Pre-emergence herbicidal glasshouse test, ABUTH; conditions: 125 g/h, evaluated after 13 days, five-point scale
Protocol: as §2

Setaria faberi (SETFA) [8] = assay: Pre-emergence herbicidal glasshouse test, SETFA; conditions: 125 g/h, evaluated after 13 days, five-point scale
Procedure, shortened: as §1

[9] = tested on: Echinochloa crus-galli (ECHCG); assay: Pre-emergence herbicidal glasshouse test, ECHCG; conditions: 125 g/h, evaluated after 13 days, five-point scale
Procedure, shortened: as §1

[10] = tested on: Ipomoea hederacea (IPOHE); assay: Pre-emergence herbicidal glasshouse test, IPOHE; conditions: 125 g/h, evaluated after 13 days, five-point scale
Procedure, shortened: as §1

| Compound | percentage damage caused to the plant, POST Application AMARE [1] | percentage damage caused to the plant, POST Application ABUTH [2] | percentage damage caused to the plant, POST Application SETFA (Setaria faberi (SETFA) [3]) | percentage damage caused to the plant, POST Application ECHCG [4] | percentage damage caused to the plant, POST Application IPOHE [5] | percentage damage caused to the plant, PRE Application AMARE [6] | percentage damage caused to the plant, PRE Application ABUTH [7] | percentage damage caused to the plant, PRE Application SETFA (Setaria faberi (SETFA) [8]) | percentage damage caused to the plant, PRE Application ECHCG [9] | percentage damage caused to the plant, PRE Application IPOHE [10] |
| --- | --- | --- | --- | --- | --- | --- | --- | --- | --- | --- |
| COC(=O)Nc1c(OC(F)(F)F)ccc(C(=O)Nc2nnnn2C)c1Cl [Compound 1.001] | 5 (5=80-100%) | 5 (5=80-100%) | 5 (5=80-100%) | 5 (5=80-100%) | 5 (5=80-100%) | 5 (5=80-100%) | 5 (5=80-100%) | 5 (5=80-100%) | 5 (5=80-100%) | 3 (3=40-59%) |
| CCOC(=O)Nc1c(OC(F)(F)F)ccc(C(=O)Nc2nnnn2C)c1Cl [Compound 1.002, ethyl N-[2-chloro-3-[(1-methyltetrazol-5-yl)carbamoyl]-6-(trifluoromethoxy)phenyl]carbamate] | 4 (4=60-79%) | 4 (4=60-79%) | 4 (4=60-79%) | 4 (4=60-79%) | 4 (4=60-79%) | 5 (5=80-100%) | 5 (5=80-100%) | 4 (4=60-79%) | 5 (5=80-100%) | 5 (5=80-100%) |
| CCn1nnnc1NC(=O)c1ccc(OC(F)(F)F)c(NC(=O)OC)c1Cl [Compound 1.003] | 4 (4=60-79%) | 4 (4=60-79%) | 4 (4=60-79%) | 4 (4=60-79%) | 4 (4=60-79%) | 5 (5=80-100%) | 5 (5=80-100%) | 5 (5=80-100%) | 5 (5=80-100%) | 4 (4=60-79%) |
| CCOC(=O)Nc1c(OC(F)(F)F)ccc(C(=O)Nc2nnnn2CC)c1Cl [Compound 1.004] | 4 (4=60-79%) | 4 (4=60-79%) | 4 (4=60-79%) | 4 (4=60-79%) | 4 (4=60-79%) | 5 (5=80-100%) | 5 (5=80-100%) | 3 (3=40-59%) | 5 (5=80-100%) | 4 (4=60-79%) |
| COC(=O)Nc1c(OC(F)F)ccc(C(=O)Nc2nnnn2C)c1Cl [Compound 1.005] | 5 (5=80-100%) | 5 (5=80-100%) | 5 (5=80-100%) | 5 (5=80-100%) | 5 (5=80-100%) | 5 (5=80-100%) | 5 (5=80-100%) | 4 (4=60-79%) | 5 (5=80-100%) | 4 (4=60-79%) |
| COCCOC(=O)Nc1c(OC(F)(F)F)ccc(C(=O)Nc2nnnn2C)c1Cl [Compound 1.006] | 5 (5=80-100%) | 5 (5=80-100%) | 4 (4=60-79%) | 4 (4=60-79%) | 4 (4=60-79%) | 4 (4=60-79%) | 5 (5=80-100%) | 4 (4=60-79%) | 5 (5=80-100%) | 4 (4=60-79%) |
| CC(C)OC(=O)Nc1c(OC(F)(F)F)ccc(C(=O)Nc2nnnn2C)c1Cl [Compound 1.007] | 4 (4=60-79%) | 5 (5=80-100%) | 4 (4=60-79%) | 4 (4=60-79%) | 4 (4=60-79%) | 5 (5=80-100%) | 5 (5=80-100%) | 4 (4=60-79%) | 5 (5=80-100%) | 4 (4=60-79%) |
| CCOC(=O)Nc1c(OC(F)F)ccc(C(=O)Nc2nnnn2C)c1Cl [Compound 1.008] | 4 (4=60-79%) | 4 (4=60-79%) | 4 (4=60-79%) | 4 (4=60-79%) | 4 (4=60-79%) | 5 (5=80-100%) | 5 (5=80-100%) | 4 (4=60-79%) | 5 (5=80-100%) | 4 (4=60-79%) |
| CCOC(=O)Nc1c(OC(F)F)ccc(C(=O)Nc2nnnn2CC)c1Cl [Compound 1.009] | 4 (4=60-79%) | 4 (4=60-79%) | 3 (3=40-59%) | 5 (5=80-100%) | 4 (4=60-79%) | 5 (5=80-100%) | 5 (5=80-100%) | 3 (3=40-59%) | 4 (4=60-79%) | 4 (4=60-79%) |
| CCn1nnnc1NC(=O)c1ccc(OC(F)F)c(NC(=O)OC)c1Cl [Compound 1.010] | 4 (4=60-79%) | 3 (3=40-59%) | 5 (5=80-100%) | 5 (5=80-100%) | 4 (4=60-79%) | 3 (3=40-59%) | 5 (5=80-100%) | 3 (3=40-59%) | 3 (3=40-59%) | 4 (4=60-79%) |
